The text below walks through data of patent publication US20240118281A1, “ANTICANCER COMPOUNDS AND USES THEREOF” (University of Florida Research Foundation, Incorporated, priority 2021, published 2024).

For one test, the system named is MDA-MB-468 cells. Briefly: Thymidine incorporation (DNA synthesis) assay. The class given is cell-based. The following applies: 24 h, FIG. 9A. On the procedure: Thymidine incorporation assays were performed as described previously (Corsino P, et al. J Biol Chem 2009; 284: 29945-29955).
For the next test, the target named is PDIA1 (Homo sapiens, UniProt P07237). Briefly: In vitro binding assay with recombinant purified PDIA1. The following applies: pre-incubation with a molar excess, FIG. 3D. The method, then: Purified His6-AGR2 or His6-AGR2 C81S, as prepared above, or His6-AGR2 (PRO-580) or His6-AGR3 (PRO-242) obtained from ProSpec (New Brunswick NJ) were incubated with or without varying concentrations of the unlabeled DDA competitors, tcyDTDO or dMtcyDTDO, and 30 μM Biotin-GlyPyrDTDO or Biotin-PyrDTDO in buffer (20 mM HEPES (pH 7.4), 1 mM EDTA, 1 mM EGTA, 5% Glycerol, 1 nM Microcystin, 1 mM Na3VO4, and 40 mM Na2H2P2O7) containing 1% Triton-X 100 for 30 min at 37° C. […] Therefore, the two probes were used interchangeably. Reactions were stopped by boiling the samples in 2×-SDS-Sample Buffer containing 100 mM NEM for 10 min. Biotin-DDA labeling of protein was verified by blotting with Streptavidin-Alkaline Phosphatase (Rockland Immunochemicals, Inc., Limerick, PA). ERp44 (PRO-547) and PDIA1 (ENZ-262) were obtained from ProSpec and used in experiments examining the binding of these proteins to Biotin-PyrDTDO.
Chain of PDIA1 (P07237 18-508): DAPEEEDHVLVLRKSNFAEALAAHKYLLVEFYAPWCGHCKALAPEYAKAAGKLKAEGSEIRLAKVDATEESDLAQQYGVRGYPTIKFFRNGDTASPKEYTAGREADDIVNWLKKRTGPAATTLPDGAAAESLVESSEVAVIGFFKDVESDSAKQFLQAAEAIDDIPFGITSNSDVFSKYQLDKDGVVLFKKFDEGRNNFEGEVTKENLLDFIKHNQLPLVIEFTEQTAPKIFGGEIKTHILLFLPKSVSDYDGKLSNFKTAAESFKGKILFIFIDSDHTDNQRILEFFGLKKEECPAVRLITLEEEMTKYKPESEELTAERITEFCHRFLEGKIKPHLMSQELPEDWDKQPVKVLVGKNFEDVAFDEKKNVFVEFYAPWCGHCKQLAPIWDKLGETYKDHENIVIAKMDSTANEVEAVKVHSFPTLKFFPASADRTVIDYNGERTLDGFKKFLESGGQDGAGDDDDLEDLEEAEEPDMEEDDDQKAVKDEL

Test [1] concerns HER3, DR5, CHOP and XBP1s. The experiment in a line: Reducing immunoblot of DDA responses. The test is classed as cell-based. The following applies: MDA-MB-468 cells. An excerpt:
(§1) The BT20, BT474, BT549, MCF7, MDA-MB-231, MDA-MB-436, MDA-MB-468, HCC1143, HCC1500, HCC1569, HCC1937, HCC1954, Hs578t, and T47D cells lines were purchased from American Type Culture Collection (ATCC) (Manassas, VA). The HCI-001 cell line was derived from an ER-/PR-/HER2- patient-derived xenograft originally isolated from a patient as described previously (DeRose Y S, et al. Nat Med 2011; 17: 1514-1520). The HCI-001/LVM2 model was derived from the HCI-001 cell line by performing two rounds of selection for liver metastasis, as described previously (Wang M, et al. Cell Death Discovery 2019; 5: 153). Cell lines were grown in Dulbecco's Modified Eagle's Medium (GE Healthcare Life Sciences, Logan, UT) containing 10% fetal bovine serum (10% FBS—DMEM) in a humidified incubator with 5% CO2 at 37° C. Cell lysates were prepared as described previously (Law B K, et al. Mol Cell Biol. 2002; 22: 8184-8198). […]
(In general: Immunoblotting shows a protein as a band on a membrane.)

Test [2] has as its target T1, ERp44/DR5 complexes (Homo sapiens, UniProt Q9BS26).
T1 construct: endogenous in cells; host or cells: MDA-MB-468
Briefly: ERp44 co-immunoprecipitation. The following applies: MDA-MB-468 cells inducibly expressing Δ81-178 DR5, 24 h, FIG. 7D. The test is classed as cell-based.
T1 sequence (Q9BS26 30-406, one chain of several): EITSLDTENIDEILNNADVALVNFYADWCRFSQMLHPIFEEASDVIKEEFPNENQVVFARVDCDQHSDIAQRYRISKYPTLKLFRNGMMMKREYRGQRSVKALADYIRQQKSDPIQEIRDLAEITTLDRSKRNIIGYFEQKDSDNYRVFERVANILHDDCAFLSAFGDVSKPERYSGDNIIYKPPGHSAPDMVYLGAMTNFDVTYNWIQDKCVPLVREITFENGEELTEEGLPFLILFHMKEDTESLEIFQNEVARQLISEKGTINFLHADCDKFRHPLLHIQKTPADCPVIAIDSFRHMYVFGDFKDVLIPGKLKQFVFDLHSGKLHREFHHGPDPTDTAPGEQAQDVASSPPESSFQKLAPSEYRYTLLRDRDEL

The target of test [3] is T2, ERp44/DR5 complexes (Homo sapiens, UniProt Q9BS26).
T2 construct: endogenous in cells; host or cells: MDA-MB-468
Briefly: ERp44 co-immunoprecipitation. The test is classed as cell-based. The following applies: MDA-MB-468 cells inducibly expressing wild type DR5, 24 h, FIG. 7D.
T2 sequence (Q9BS26 30-406): as the sequence (Q9BS26 30-406, one chain of several) above
T2 sequence (O14763 56-440 partner): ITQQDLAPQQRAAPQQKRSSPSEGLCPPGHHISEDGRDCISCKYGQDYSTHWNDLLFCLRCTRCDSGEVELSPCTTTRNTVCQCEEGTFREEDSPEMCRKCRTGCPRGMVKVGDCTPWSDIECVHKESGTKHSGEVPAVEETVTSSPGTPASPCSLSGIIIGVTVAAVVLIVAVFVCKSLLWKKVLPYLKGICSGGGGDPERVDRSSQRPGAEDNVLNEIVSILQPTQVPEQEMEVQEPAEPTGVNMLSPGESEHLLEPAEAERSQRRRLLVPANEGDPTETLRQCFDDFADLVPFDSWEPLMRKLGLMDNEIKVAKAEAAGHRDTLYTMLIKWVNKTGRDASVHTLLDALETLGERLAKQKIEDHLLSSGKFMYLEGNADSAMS

The test system of test [4] is HER2+ BT474 xenograft tumors. The experiment in a line: BT474 xenograft tumor study, H&E staining of mammary fat pads/tumors. The class given is in vivo, mice. The following applies: 20 mg/kg intraperitoneal, four consecutive days; vehicle tumors showed no necrosis. On the procedure:
Breast cancer liver metastasis was initiated in NOD-SCID-gamma (NSG) mice obtained from Jackson Laboratories (Bar Harbor, ME) by injecting 1×10^6 cancer cells into the #4 mammary fat pads as described previously (Wang M, et al. Cell Death Discovery 2019; 5: 153). Mice bearing HCI-001/LVM2 breast tumors were treated once daily for four consecutive days with 20 mg/kg tcyDTDO by oral gavage and livers were collected. Animals bearing HER2+ BT474 tumors were treated with the vehicle or 20 mg/kg dMtcyDTDO or dFtcyDTDO by intraperitoneal injection for four consecutive days. Tissue samples fixed in 4% paraformaldehyde/PBS and paraffin-embedded were sectioned and stained with hematoxylin and eosin (H&E) by the University of Florida Molecular Pathology Core (https://molecular.pathology.ufl.edu/).

For another test, the system named is EGFR. Briefly: Disulfide bond-mediated oligomerization, non-reducing immunoblot. The class given is cell-based. The following applies: MDA-MB-468 cells, 24 h, FIG. 1E right. An excerpt:
(§2) The BT20, BT474, BT549, MCF7, MDA-MB-231, MDA-MB-436, MDA-MB-468, HCC1143, HCC1500, HCC1569, HCC1937, HCC1954, Hs578t, and T47D cells lines were purchased from American Type Culture Collection (ATCC) (Manassas, VA). The HCI-001 cell line was derived from an ER-/PR-/HER2- patient-derived xenograft originally isolated from a patient as described previously (DeRose Y S, et al. Nat Med 2011; 17: 1514-1520). The HCI-001/LVM2 model was derived from the HCI-001 cell line by performing two rounds of selection for liver metastasis, as described previously (Wang M, et al. Cell Death Discovery 2019; 5: 153). Cell lines were grown in Dulbecco's Modified Eagle's Medium (GE Healthcare Life Sciences, Logan, UT) containing 10% fetal bovine serum (10% FBS—DMEM) in a humidified incubator with 5% CO2 at 37° C. Cell lysates were prepared as described previously (Law B K, et al. Mol Cell Biol. 2002; 22: 8184-8198). Immunoblot analysis was performed utilizing the following antibodies purchased from Cell Signaling Technology (Beverly, MA) [Akt, #4691; P-Akt[T308], #13038; ATF4, #11815; CHOP, #2895; Cleaved Caspase 8, #9496; DR4, #42533; DR5, #8074; EGFR, #4267; GRP78, #3177; HER3, #4754; PARP, #9532; PDIA1, #3501; XBP1s, #12782], from Santa Cruz Biotechnology (Santa Cruz, CA) [Actin, sc-47778; AGR2/3, sc-376653; AGR3, sc-390940; ERO1-a, sc-100805; and ERp44, sc-393687], or from Rockland Immunochemicals, Inc. (Limerick, PA), Streptavidin-Alkaline Phosphatase conjugated (SA-AP), S000-05.
(§3) To assess protein disulfide bond-mediated oligomerization, cells were treated with DDAs for 24 h in 10% FBS-DMEM. Cells were subsequently scraped directly into the media and pelleted by centrifugation. Cells were extracted directly into boiling 2×-SDS-Sample Buffer containing 100 mM NEM and boiled for 10 min. Samples were sonicated, followed by centrifugation for 20 min at room temperature. Samples were subsequently analyzed by SDS-PAGE and immunoblot.

In another test the test system is DR4. The test is described as above. The test is classed as cell-based.
Source text: as §2, §3

In another test the test system is Caspase 8. Briefly: Caspase 8 cleavage/activation (CC8), immunoblot. The following applies: 24 h. The class given is cell-based.
Source text: as §1
To assess protein disulfide bond-mediated oligomerization, cells were treated with DDAs for 24 h in 10% FBS-DMEM. […] Samples were subsequently analyzed by SDS-PAGE and immunoblot.

The subject of another test is GRP78. Briefly: Endoplasmic reticulum stress (ERS) induction, immunoblot. The following applies: MDA-MB-468 cells, 24 h. The test is classed as cell-based.
Source text: as §2, §3

The test system of another test is DR5. The experiment in a line: Doxycycline-inducible DR5 (wild type and Cys mutants) expression, non-reducing immunoblot. The class given is cell-based. The following applies: MDA-MB-468 stable cell lines, 24 h, FIG. 7E. On the procedure:
as §3

The structures appear in SMILES notation.

With `CO[C@H]1C[C@@H]2CS(=O)(=O)SC[C@H]2C[C@@H]1OC` [dMtcyDTDO, dimethoxy-tcyDTDO], the “Potency in DNA synthesis assay relative to tcyDTDO” value with MDA-MB-468 cells was “two-fold greater potency than tcyDTDO”. The “Block of Biotin-PyrDTDO biotinylation of PDIA1” value on PDIA1 is “biotinylation was blocked”. Besides, the “Potency in induction of HER3 downregulation, DR5 upregulation and ERS (CHOP, XBP1s)” value in test [1] (24 h, reducing conditions, FIG. 9B) was “more potent than tcyDTDO”. The “Onset of these responses (time-course)” value in [1] (FIG. 9C) is reported as “as early as four hours after treatment”. The “ERp44 binding to DR5[Δ81-178] in treated cells” value at ERp44/DR5 complexes [2] is on record as “barely detectable”. At ERp44/DR5 complexes [3], the “ERp44 binding to wild type DR5 in treated cells” value was “wild type DR5 bound ERp44”. For the same compound, the “Tumors in mammary fat pads, H&E histology” value in test [4] was “tumors that had undergone coagulation necrosis”. Moreover, the “Concentration at which disulfide-mediated oligomerization of EGFR was detected” value in the test with EGFR is on record as 625 nM. Moreover, in the test with DR4 (0, 1.25, 2.5, 5 uM, FIG. 1F), the “Levels and oligomerization of DR4, densitometry” value is recorded as “increases DR4 oligomerization without affecting overall DR4 levels”. For the same compound, the “Concentration at which disulfide-mediated oligomerization of DR4 was detected” value in the test on DR4 (MDA-MB-468 cells, 24 h, FIG. 1E right) stood at 625 nM. Further, in the test on DR4 (MDA-MB-468 cells, 24 h, compared with tcyDTDO, FIG. 1E left), the “DR4/5 oligomerization at the same concentration (DR4)” value is “more DR4/5 oligomerization”. In addition, the “Induction of Caspase 8 cleavage/activation (CC8) in ERp44 knockdown versus vector control cells” value in the test with Caspase 8 (MDA-MB-468 cells, 2.5 or 5 μM, FIG. 5D) is “increased dMtcyDTDO induction of Caspase 8 cleavage/activation”. The “Caspase 8 cleavage in cells expressing C119S or C160S DR5 mutants” value with Caspase 8 (MDA-MB-468 stable cell lines, FIG. 7E) was “modestly increased Caspase 8 cleavage”. Moreover, the “Concentration at which induction of ERS (GRP78 elevation) was detected” value in the test with GRP78 (FIG. 1E right) turned out to be 625 nM. In addition, the “ERS at the same concentration” value in the test on GRP78 (compared with tcyDTDO, FIG. 1E left) was “greater ERS”. In addition, in the test with DR5, the “Expression of C119S or C160S DR5 mutants” value is “did not further increase expression of the C119S or C160S DR5 mutants” and the “Wild type DR5 expression on co-treatment with doxycycline” value is listed as “further increased DR5 expression”.
